In patent US10596296B2, “Heparan sulphates” (Agency for Science, Technology and Research, priority 2014, dated 2020):

Tested on: chondrogenic differentiation of hMSCs
Test: Alcian blue staining of chondrogenic micromass pellets
Type: cell-based, human
Conditions: 21 days; 1 ng/mL TGF-β1 with 10 μg/mL GAG
Experimental: In order to assess the effects of HS16+ve on the chondrogenic differentiation of hMSCs in vitro, it was first necessary to establish the effects of TGF-β1 alone. Chondrogenic differentiation was carried out using a modified micromass culture system. [Zhang, L., et al., Chondrogenic differentiation of human mesenchymal stem cells: a comparison between micromass and pellet culture systems. Biotechnol Lett, 2010. 32(9): p. 1339-1346.]. Briefly, passage 4 hMSCs were harvested and resuspended in chemically defined chondrogenic media (PT-3003, Lonza, MD, USA) at 2×10^7 cells/mL. Droplets of 12.5 μL were then seeded into the middle of each well in a 24-well plate and left to adhere at 37° C. for 2 h, after which, 500 μL of chondrogenic media supplemented with either 1 or 10 ng/mL of TGF-β1 (100-210, PeproTech) alone or with either 5 or 10 μg/mL of heparin (Sigma-Aldrich), porcine mucosal HS (HSPM) (Celsus laboratories), HS16+ve or HS16-ve was added to each well. The cell droplets coalesced into spherical masses after 24 h. Media was changed every 3 days and the micromasses harvested on days 3, 7, 14 and 21.

## heparin
  GAG deposition by Alcian blue staining relative to 1 ng/mL TGF-β1 alone: slight increase in GAG deposition
